What follows are compounds tested against T1, menin-MLL interaction (Homo sapiens, UniProt O00255) (assay: biochemical).
T1 sequence (O00255 1-610): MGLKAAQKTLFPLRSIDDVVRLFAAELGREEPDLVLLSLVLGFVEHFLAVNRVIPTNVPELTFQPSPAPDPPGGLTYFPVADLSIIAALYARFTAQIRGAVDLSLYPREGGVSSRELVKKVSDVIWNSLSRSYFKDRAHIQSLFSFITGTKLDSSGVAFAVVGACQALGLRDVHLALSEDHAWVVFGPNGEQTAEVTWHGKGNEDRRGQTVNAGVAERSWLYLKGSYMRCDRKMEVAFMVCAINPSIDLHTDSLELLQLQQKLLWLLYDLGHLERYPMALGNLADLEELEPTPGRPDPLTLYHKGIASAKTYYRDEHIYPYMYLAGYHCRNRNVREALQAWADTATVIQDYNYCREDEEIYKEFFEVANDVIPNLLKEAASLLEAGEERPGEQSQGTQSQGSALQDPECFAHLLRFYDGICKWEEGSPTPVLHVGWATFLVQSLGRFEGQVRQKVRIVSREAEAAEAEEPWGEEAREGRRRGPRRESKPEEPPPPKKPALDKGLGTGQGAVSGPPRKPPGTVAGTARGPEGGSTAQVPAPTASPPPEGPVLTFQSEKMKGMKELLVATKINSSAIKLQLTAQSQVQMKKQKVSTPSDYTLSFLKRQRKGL
Description: Fluorescence Polarization Assay.
Compounds that inhibit the interaction decrease the fluorescence anisotropy which is being used as a read-out for compound screening and for IC50 determination. For validation of the FP assay, a control competition experiment with unlabeled MLL peptide (no fluorescein attached) was performed.
`OC(c1ccccc1)(c1ccccc1)C1CCN(CCCOc2ccc(C(F)(F)F)cc2)CC1` [Compound B3] was tested, and the IC50 was 52 µM. Work on `OC(c1ccccc1)(c1ccccc1)C1CCN(CCCOc2ccc(OC(F)(F)F)cc2)CC1` [Compound B4] yielded an IC50 of 98 µM. In the case of `OC(c1ccccc1)(c1ccccc1)C1CCN(CCCOc2ccc(Cl)cc2)CC1` [Compound B5], the IC50 is reported as 96 µM. With `N#Cc1ccc(OCCCN2CCC(C(O)(c3ccccc3)c3ccccc3)CC2)cc1F` [Compound B6] the IC50 was 26.5 µM. `OC(c1ccccc1)(c1ccccc1)C1CCN(CCCOc2ccc(-n3ccnn3)cc2)CC1` [Compound B10, (1-(3-(4-(1H-1,2,3-triazol-1-yl)phenoxy)propyl)piperidin-4-yl)diphenylmethanol] showed an IC50 of 29 µM. `N#Cc1ccc(OCCCN2CCC(C(O)(c3ccccc3)c3ccc(F)cc3)CC2)cc1` (stereo not drawn) [Compound B13] was tested, and the IC50 was 77.5 µM. For `[N-]=[N+]=Nc1ccc(OCCCN2CCC(C(O)(c3ccccc3)c3ccccc3)CC2)cc1` [Compound B14], the IC50 was 58 µM. `COC(=O)c1ccc(OCCCN2CCC(C(O)(c3ccccc3)c3ccccc3)CC2)cc1` [Compound B16] gave an IC50 of 86 µM. In the case of `N#Cc1ccc(OCCCN2CCC(C(O)(c3ccccc3)C(F)(F)F)CC2)cc1` (stereo not drawn) [Compound B23], the IC50 is reported as 31 µM. Compound `NS(=O)(=O)c1ccc(OCCCN2CCC(C(O)(c3ccccc3)c3ccccc3)CC2)cc1` [Compound B24] has an IC50 of 14.3 µM. `CS(=O)(=O)NCc1ccc(OCCCN2CCC(C(O)(c3ccccc3)c3ccccc3)CC2)cc1` [Compound B25] was tested, and the IC50 was 40 µM. `O=C(c1ccc(OCCCN2CCC(C(O)(c3ccccc3)C3CCCC3)CC2)cc1)C1CCCC1` (stereo not drawn) [Compound B26] was tested, and the IC50 was 3.95 µM. With `NCc1ccc(OCCCN2CCC([C@](O)(c3ccccc3)C3CCCC3)CC2)cc1` [Compound B27] the IC50 was 13.9 µM. `NCc1ccc(OCCCN2CCC([C@@](O)(c3ccccc3)C3CCCC3)CC2)cc1` [Compound B28] gave an IC50 of 13.1 µM. With `Oc1ccccc1-c1ccc(OCCCN2CCC(C(O)(c3ccccc3)c3ccccc3)CC2)cc1` [Compound B29] the IC50 was 8.3 µM. `CN(C)S(=O)(=O)c1ccc(OCCCN2CCC(C(O)(c3ccccc3)c3ccccc3)CC2)cc1` [Compound B30] was tested, and the IC50 was 40 µM. For `N#Cc1ccc(OCCCN2CCC(C(O)(C3CCCC3)C3CCCC3)CC2)cc1` [Compound B31], the IC50 was 1.4 µM. With `N#Cc1ccc(OCCCN2CCC(C(O)(C3=CCCC3)c3ccccc3)CC2)cc1` (stereo not drawn) [Compound B32] the IC50 was 2.08 µM. Compound `CS(=O)(=O)c1ccc(OCCCN2CCC(C(O)(c3ccccc3)c3ccccc3)CC2)cc1` [Compound B33] has an IC50 of 58.5 µM. With `NCc1ccc(OCCCN2CCC(C(O)(C3=CCCC3)c3ccccc3)CC2)cc1` (stereo not drawn) [Compound B34] the IC50 was 13.9 µM. Work on `OC(c1ccccc1)(c1ccccc1)C1CCN(CCCOc2ccc(-c3ccncc3)cc2)CC1` [Compound B35, Diphenyl(1-(3-(4-(pyridin-4-yl)phenoxy)propyl)piperidin-4-yl)methanol] yielded an IC50 of 30.6 µM. `OC(c1ccccc1)(c1ccccc1)C1CCN(CCCOc2ccc(-c3cccnc3)cc2)CC1` [Compound B36] was tested, and the IC50 was 22.6 µM. For `OC(c1ccccc1)(c1ccccc1)C1CCN(CCCOc2ccncc2)CC1` [Compound B37], the IC50 was 25 µM. `CC(=O)NCc1ccc(OCCCN2CCC(C(O)(c3ccccc3)c3ccccc3)CC2)cc1` [Compound B38] gave an IC50 of 20.7 µM. Work on `OC(c1ccccc1)(c1ccccc1)C1CCN(CCCOc2ccc(-c3cncnc3)cc2)CC1` [Compound B39] yielded an IC50 of 83 µM. In the case of `N#CCc1ccc(OCCCN2CCC(C(O)(c3ccccc3)c3ccccc3)CC2)cc1` [Compound B40], the IC50 is reported as 17.4 µM. `N#Cc1ccc(OC[C@H](O)CN2CCC(C(O)(c3ccccc3)C3CCCC3)CC2)cc1` (stereo partly drawn) [Compound B41] showed an IC50 of 1.15 µM. In the case of `N#Cc1ccc(NCCCN2CCC(C(O)(c3ccccc3)c3ccccc3)CC2)cc1` [Compound B42], the IC50 is reported as 9.56 µM. `N#Cc1ccc(OC[C@@H](O)CN2CCC(C(O)(c3ccccc3)C3CCCC3)CC2)cc1` (stereo partly drawn) [Compound B43] showed an IC50 of 0.948 µM. With `CS(=O)(=O)c1ccc(OC[C@@H](O)CN2CCC(C(O)(c3ccccc3)c3ccccc3)CC2)cc1` [Compound B45] the IC50 was 21 µM. In the case of `Cc1ccc(OC[C@@H](O)CN2CCC(C(O)(c3ccccc3)c3ccccc3)CC2)cc1` [Compound B46], the IC50 is reported as 100 µM. In the case of `O[C@H](COc1ccc(Cl)cc1)CN1CCC(C(O)(c2ccccc2)c2ccccc2)CC1` [Compound B47], the IC50 is reported as 40 µM. Compound `O[C@H](COc1ccc(OC(F)(F)F)cc1)CN1CCC(C(O)(c2ccccc2)c2ccccc2)CC1` [Compound B48] has an IC50 of 31 µM. For `CC(COc1ccc(C#N)c(F)c1)CN1CCC(C(O)(c2ccccc2)c2ccccc2)CC1` (stereo not drawn) [Compound B49], the IC50 was 70.8 µM. For `N#Cc1ccc(OC[C@@H](O)CN2CCC(C(O)(c3ccccc3)c3ccccc3)CC2)c(F)c1` [Compound B50], the IC50 was 40 µM. Compound `N#Cc1ccc(OC[C@@H](O)CN2CCC(C(O)(c3ccccc3)c3ccccc3)CC2)cc1F` [Compound B51] has an IC50 of 15 µM. For `CC(CCN1CCC(C(O)(c2ccccc2)c2ccccc2)CC1)Oc1ccc([N+](=O)[O-])cc1Cl` (stereo not drawn) [Compound B52], the IC50 was 55 µM. Work on `CCOC(c1ccccc1)(c1ccccc1)C1CCN(CCCOc2ccc(C#N)cc2)CC1` [Compound B54] yielded an IC50 of 5.3 µM. Compound `COC(c1ccccc1)(c1ccccc1)C1CCN(CCCOc2ccc(C#N)cc2)CC1` [Compound B55] has an IC50 of 5.3 µM. `CN(C)CCOC(c1ccccc1)(c1ccccc1)C1CCN(CCCOc2ccc(C#N)cc2)CC1` [Compound B56] was tested, and the IC50 was 4.2 µM. In the case of `COc1ccc(C(O)(C2CCCC2)C2CCN(CCCOc3ccc(C#N)cc3)CC2)cn1` (stereo not drawn) [Compound B57], the IC50 is reported as 75 µM. For `N#Cc1ccc(OCCCN2CCC(C(O)(Cc3ccccc3)C3=CCCC3)CC2)cc1` (stereo not drawn) [Compound B59], the IC50 was 11.3 µM. `N#Cc1ccc(OCCCN2CCC(C(O)(c3ccccc3)C3CCCC3)CC2)cn1` (stereo not drawn) [Compound B61] was tested, and the IC50 was 8.94 µM. Work on `COC(c1ccccc1)(C1CCCC1)C1CCN(CCCOc2ccc(C#N)cc2)CC1` (stereo not drawn) [Compound B62] yielded an IC50 of 0.743 µM. Work on `N#Cc1ccc(OCCCN2CCC(C(O)(C3CCCC3)C3CCCCN3)CC2)cc1` (stereo not drawn) [Compound B63] yielded an IC50 of 28 µM. Compound `N#Cc1ccc(OCCCN2CCC(C(O)(c3ccccn3)C3CCCC3)CC2)cn1` (stereo not drawn) [Compound B64] has an IC50 of 4.05 µM. Compound `COc1cccc(C(O)(C2CCCC2)C2CCN(CCCOc3ccc(C#N)cc3)CC2)c1` (stereo not drawn) [Compound B68] has an IC50 of 1.1 µM. `N#Cc1ccc(OCCCN2CCC(C(O)(c3cc(F)cc(F)c3)c3ccccn3)CC2)cc1` (stereo not drawn) [Compound B81] was tested, and the IC50 was 0.9 µM. `NS(=O)(=O)c1ccc(OCCCN2CCC(C(O)(c3cccc(F)c3)c3nccs3)CC2)cc1` (stereo not drawn) [Compound B82] showed an IC50 of 0.354 µM. Compound `N#Cc1ccc(OCCCN2CCC(C(O)(c3cccc(F)c3)c3nccs3)CC2)cc1` (stereo not drawn) [Compound B83] has an IC50 of 0.407 µM. `N#Cc1ccc(OCC(O)CN2CCC(C(O)(c3cccc(F)c3)c3ccccn3)CC2)cc1` (stereo not drawn) [Compound B86, 4-(3-(4-((3-Fluorophenyl)(hydroxy)(pyridin-2-yl)methyl)piperidin-1-yl)-2-hydroxypropoxy)benzonitrile] was tested, and the IC50 was 0.222 µM.

Reference: patent US9212180B2 (priority 2013, dated 2015)
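Also: fluorescence polarization competition assay, inhibitors lower the fluorescence anisotropy signal, IC50 taken from this drop.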
